Measurements taken from patent US12410160B2 (Gilead Sciences, Inc., priority 2021, dated 2025).
Read-outs that look alike come from different tables or passages of the source.

How the values were obtained:
human KHK-C = human KHK-C (Homo sapiens (Human), UniProt P50053); assay: KHK Biochemical Assay (IC50), ADP-Glo, KHK-C; details: average of at least two separate assays
Summary of the method: (§1)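 ADP-Glo luminescence measured ADP made over a 4 h room-temperature reaction of ATP plus fructose, started after 30 min compound–enzyme pre-incubation. Buffer: 50 mM Hepes pH 7.4, 140 mM KCl, 5 mM MgCl2, 0.01% Triton-X. Enzyme was His-tagged, BL21 (DE3)-expressed, Ni-NTA-purified; compounds in 1:3 DMSO dilution series.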

HepG2 cells = assay: F1P Cell-Based Assay (EC50), 13C6-fructose-1-phosphate in HepG2 cells (cell culture medium or 50% human plasma); details: Homo sapiens
Procedure: F1P Cell-Based Assay (EC50)
Compounds were serially diluted (1:3) in DMSO. The LabCyte ECHO Acoustic dispenser system was used to pre-spot the assay plates (Greiner, Catalog #781091) with 400 nL (200-fold final dilution in 80 μL assay volume) of compound. 25,000 cells/well HepG2 cells (ATCC Catalog #HB-8065) were plated in a 40 μL volume/well in DMEM medium with 4.5 g/L glucose, 1× Penicillin-Streptomycin-Glutamine, and 10% FBS, using a BioTEK dispenser in a biological hood and incubated overnight at 37° C., 5% CO2, 90% humidity. 40 μL/well serum free assay medium (for F1P assay in cell culture medium), or 40 μL/well 100% human plasma (for F1P assay in 50% human plasma) were then added to the plates on the following day, and incubated for 1 hour at 37° C., 5% CO2, 90% humidity. ^13C6-labelled fructose (Sigma, Catalog #587621) in sterile PBS was added to the plates at a final concentration of 5 mM. The plates were incubated for 2 hours at 37° C., 5% CO2, 90% humidity. The assay was quenched by washing the cells with sterile PBS and adding 60 μL/well of 80% (v/v) methanol, 2 mM ammonium acetate and 2.5 μM Crotonyl-CoA, using a BioTEK washer-dispenser system. The plates were then sealed and stored in the −80° C. freezer until ready for RapidFire readout. ^13C6-fructose-1-phosphate in individual wells was quantified using the Agilent RapidFire High-Throughput MS system in negative mode using a […]. Mobile Phase 1 consisted of 20 mM ammonium acetate with 0.05% acetic acid in 100% methanol. Mobile phase 2 consisted of 5 mM octylamine in water (pH adjusted to 5 using acetic acid). F1P signals in individual wells were normalized by crotonyl CoA internal control.

human KHK-A = human KHK-A (Homo sapiens (Human), UniProt P50053); assay: KHK Biochemical Assay (IC50), ADP-Glo, KHK-A; details: ADP-Glo; average of at least two separate assays
Chain of human KHK-A (P50053 other isoform, or with tags, fused parts or gaps): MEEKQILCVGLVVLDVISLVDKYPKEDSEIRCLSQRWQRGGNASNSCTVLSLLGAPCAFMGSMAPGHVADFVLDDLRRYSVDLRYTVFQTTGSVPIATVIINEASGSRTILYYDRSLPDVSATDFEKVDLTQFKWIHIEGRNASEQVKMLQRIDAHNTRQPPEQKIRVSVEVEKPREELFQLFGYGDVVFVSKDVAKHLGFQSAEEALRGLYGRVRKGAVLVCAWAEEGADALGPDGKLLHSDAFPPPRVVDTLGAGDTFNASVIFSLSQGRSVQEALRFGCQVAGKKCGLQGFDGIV
Summary of the method: as §1

[1] = HepG2, HepG2 cells, 50% human plasma, read-out: F1P 50% HP EC50
[2] = HepG2, read-out: F1P 10% FBS EC50, HepG2 cells, cell culture medium (10% FBS)

Chain of human KHK-C (P50053 whole entry): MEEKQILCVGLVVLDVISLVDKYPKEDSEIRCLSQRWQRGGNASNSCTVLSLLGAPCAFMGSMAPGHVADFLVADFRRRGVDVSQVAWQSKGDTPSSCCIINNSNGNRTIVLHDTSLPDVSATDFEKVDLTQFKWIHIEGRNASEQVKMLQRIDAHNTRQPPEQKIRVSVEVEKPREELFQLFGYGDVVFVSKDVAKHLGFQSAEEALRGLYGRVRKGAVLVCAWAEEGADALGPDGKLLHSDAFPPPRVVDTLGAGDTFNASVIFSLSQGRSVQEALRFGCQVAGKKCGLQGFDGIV

Structure (SMILES)	EC50 (HepG2 cells; [1])	EC50 (HepG2 cells; [2])	further results
C[C@H]1[C@H](O)CN1c1nc(-c2cccc(N=S3(=O)CCNCC3)c2)c2c(n1)C(F)(F)CC2 [Example 672, (2S,3R)-1-[7,7-difluoro-4-[3-[(1-oxo-1,4-thiazinan-1-ylidene)amino]phenyl]-5,6-dihydroeyelopenta[d]pyrimidin-2-yl]-2-methyl-azetidin-3-ol]	105 nM	56.2 nM	IC50 (human KHK-C): 33.2 nM
C[C@H]1CCN1c1nc(-c2cccc(N=S3(=O)CCCC3)c2)c2c(n1)C(F)(F)CC2 [Example 669, 1-[3-[7,7-difluoro-2-[(2S)-2-methylazetidin-1-yl]-5,6-dihydrocyclopenta[d]pyrimidin-4-yl]phenyl]iminothiolane 1-oxide]	429 nM	28.6 nM	IC50 (human KHK-C): 16.2 nM
C[C@H]1[C@H](F)CN1c1nc(-c2cccc(S(C)(=N)=O)c2)c2c(n1)C(F)(F)CC2 (stereo partly drawn) [Example 710, (3-(7,7-difluoro-2-((2S,3R)-3-fluoro-2-methylazetidin-1-yl)-6,7-dihydro-5H-cyclopenta[d]pyrimidin-4-yl)phenyl)(imino)(methyl)-λ^6-sulfanone]	42.6 nM	12.9 nM	IC50 (human KHK-C): 7.2 nM
C[C@H]1CCN1c1nc(-c2ccc(-n3ccnn3)cc2)c2c(n1)C(F)(F)CC2 [Example 655, 7,7-difluoro-2-[(2S)-2-methylazetidin-1-yl]-4-[4-(triazol-1-yl)phenyl]-5,6-dihydrocyclopenta[d]pyrimidine]	236 nM	46.2 nM	–
C[C@H]1[C@H](O)CN1c1nc(-c2ccc3c(c2)OCC32COC(=O)N2)c2c(n1)C(F)(F)CC2 (stereo partly drawn) [Example 481, 6-(7,7-difluoro-2-((2S,3R)-3-hydroxy-2-methylazetidin-1-yl)-6,7-dihydro-5H-cyclopenta[d]pyrimidin-4-yl)-2H-spiro[benzofuran-3,4′-oxazolidin]-2′-one]	43 nM	6.6 nM	IC50 (human KHK-C): 0.3 nM
C[C@H]1[C@H](O)CN1c1nc(-c2ccc(C(F)(F)CN)cc2)c2c(n1)C(F)(F)CC2 [Example 515, (2S,3R)-1-(4-(4-(2-amino-1,1-difluoroethyl)phenyl)-7,7-difluoro-6,7-dihydro-5H-cyclopenta[d]pyrimidin-2-yl)-2-methylazetidin-3-ol]	126 nM	59.1 nM	IC50 (human KHK-C): 29.7 nM
C[C@H]1[C@@H](F)CN1c1nc(-c2ccc3c(c2)OC[C@@H]3NS(C)(=O)=O)c2c(n1)C(F)(F)CC2 [Example 524, N—((R)-6-(7,7-difluoro-2-((2S,3S)-3-fluoro-2-methylazetidin-1-yl)-6,7-dihydro-5H-cyclopenta[d]pyrimidin-4-yl)-2,3-dihydrobenzofuran-3-yl)methanesulfonamide]	60.1 nM	8.2 nM	IC50 (human KHK-C): 1 nM
C[C@H]1[C@H](O)CN1c1nc(-c2ccc3c(c2)S(=O)(=O)CC3NS(C)(=O)=O)c2c(n1)C(F)(F)CC2 (stereo partly drawn) [Example 665, N-[6-[7,7-difluoro-2-[(2S,3R)-3-hydroxy-2-methyl-azetidin-1-yl]-5,6-dihydrocyclopenta[d]pyrimidin-4-yl]-1,1-dioxo-2,3-dihydrobenzothiophen-3-yl]methanesulfonamide]	88.4 nM	52.7 nM	–
C[C@H]1[C@H](O)CN1c1nc(-c2ccc3c(c2)S(C)(=O)=NC3)c2c(n1)C(F)(F)CC2 (stereo partly drawn) [Example 805, (2S,3R)-1-[7,7-difluoro-4-(1-methyl-1-oxo-3H-1,2-benzothiazol-6-yl)-5,6-dihydrocyclopenta[d]pyrimidin-2-yl]-2-methyl-azetidin-3-ol]	74.1 nM	67.9 nM	–
C[C@H]1[C@H](O)CN1c1nc(-c2ccc(OC(F)F)c(S(C)(=N)=O)c2)c2c(n1)C(F)(F)CC2 (some centres unmarked) [Example 532]	55.1 nM	5.1 nM	–
CCS(=O)(=O)N[C@H]1COc2cc(-c3nc(N4C[C@@H](O)[C@@H]4C)nc4c3CCC4(F)F)ccc21 [Example 624, N—((R)-6-(7,7-difluoro-2-((2S,3R)-3-hydroxy-2-methylazetidin-1-yl)-6,7-dihydro-5H-cyclopenta[d]pyrimidin-4-yl)-2,3-dihydrobenzofuran-3-yl)ethanesulfonamide]	282 nM	129 nM	–
C[C@H]1[C@H](O)CN1c1nc(-c2ccc3c(c2)CCS3(=N)=O)c2c(n1)C(F)(F)CC2 (stereo partly drawn) [Example 664, (2S,3R)-1-[7,7-difluoro-4-(1-imino-1-oxo-2,3-dihydrobenzothiophen-5-yl)-5,6-dihydrocyclopenta[d]pyrimidin-2-yl]-2-methyl-azetidin-3-ol]	–	–	EC50 (HepG2 cells; HepG2, read-out: F1P 10% FBS EC50): 80.2 nM; EC50 (HepG2 cells; HepG2, read-out: F1P 50% HP EC50): 78.6 nM
COC(=O)N[C@H]1COc2cc(-c3nc(N4C[C@@H](O)[C@@H]4C)nc4c3CCC4(F)F)ccc21 [Example 814, Methyl N-[(3R)-6-[7,7-difluoro-2-[(2S,3R)-3-hydroxy-2-methyl-azetidin-1-yl]-5,6-dihydrocyclopenta[d]pyrimidin-4-yl]-2,3-dihydrobenzofuran-3-yl]carbamate]	155 nM	91.6 nM	–
C[C@H]1[C@H](O)CN1c1nc(-c2ccc3c(c2)C(NS(C)(=O)=O)CO3)c2c(n1)C(F)(F)CC2 (some centres unmarked) [Example 613]	26 nM	14.5 nM	–
C[C@H]1CCN1c1nc(-c2cccc(-n3ccnn3)c2)c2c(n1)C(F)(F)CC2 [Example 654, 7,7-difluoro-2-[(2S)-2-methylazetidin-1-yl]-4-[3-(triazol-1-yl)phenyl]-5,6-dihydrocyclopenta[d]pyrimidine]	214 nM	129 nM	–
C[C@H]1[C@H](O)CN1c1nc(-c2ccc3c(c2)OC(C(F)F)CNC3=O)c2c(n1)C(F)(F)CC2 (stereo partly drawn) [Example 597, 8-(7,7-difluoro-2-((2S,3R)-3-hydroxy-2-methylazetidin-1-yl)-6,7-dihydro-5H-cyclopenta[d]pyrimidin-4-yl)-2-(difluoromethyl)-3,4-dihydrobenzo[f][1,4]oxazepin-5(2H)-one]	34.4 nM	16 nM	–
C[C@H]1[C@H](O)CN1c1nc(-c2cccc(-n3cnnc3)c2)c2c(n1)C(F)(F)CC2 [Example 619, (2S,3R)-1-(4-(3-(4H-1,2,4-triazol-4-yl)phenyl)-7,7-difluoro-6,7-dihydro-5H-cyclopenta[d]pyrimidin-2-yl)-2-methylazetidin-3-ol]	> 500 nM	77.3 nM	–
C[C@H]1[C@H](O)CN1c1nc(-c2cccc(N=S3(=O)CCOCC3)c2)c2c(n1)C(F)(F)CC2 [Example 673, (2S,3R)-1-[7,7-difluoro-4-[3-[(4-oxo-1,4-oxathian-4-ylidene)amino]phenyl]-5,6-dihydrocyclopenta[d]pyrimidin-2-yl]-2-methyl-azetidin-3-ol]	75.8 nM	20.3 nM	–
COC(=O)N[C@@H]1COc2cc(-c3nc(N4C[C@@H](O)[C@@H]4C)nc4c3CCC4(F)F)ccc21 [Example 815, Methyl N-[(3S)-6-[7,7-difluoro-2-[(2S,3R)-3-hydroxy-2-methyl-azetidin-1-yl]-5,6-dihydrocyclopenta[d]pyrimidin-4-yl]-2,3-dihydrobenzofuran-3-yl]carbamate]	138 nM	64.3 nM	–
N#C[C@H]1CCN1c1nc(-c2ccc([C@@H](N)C(F)F)cc2)c2c(n1)C(F)(F)CC2 [Example 660, (2R)-1-[4-[4-[(1R)-1-amino-2,2-difluoro-ethyl]phenyl]-7,7-difluoro-5,6-dihydrocyclopenta[d]pyrimidin-2-yl]azetidine-2-carbonitrile]	26.7 nM	19.8 nM	–
C[C@H]1CCN1c1nc(-c2cn(C3CNC3)nn2)c2c(n1)C(F)(F)CC2 [Example 653, 4-[1-(azetidin-3-yl)triazol-4-yl]-7,7-difluoro-2-[(2S)-2-methylazetidin-1-yl]-5,6-dihydrocyclopenta[d]pyrimidine]	10.3 nM	11 nM	–
C[C@H]1CCN1c1nc2c(c(-c3cccc(C45CCC(C4)C5C(=O)O)c3)n1)CCC2 (stereo partly drawn) [Example 115, 1-(3-(2-((S)-2-methylazetidin-1-yl)-6,7-dihydro-5H-cyclopenta[d]pyrimidin-4-yl)phenyl)bicyclo[2.1.1]hexane-5-carboxylic acid]	–	–	IC50 (human KHK-C; ADP-Glo): 109 nM; IC50 (human KHK-A): 94.1 nM
